55 molecules from ChEMBL document CHEMBL1156829 (Proc Natl Acad Sci U S A, 2008) can be followed below.

The subject of data set [1] is Plasmodium falciparum. Put plainly: NOVARTIS: Inhibition of Plasmodium falciparum 3D7 (drug-susceptible) proliferation in erythrocyte-based infection assay. Type of data set: functional, organism-based. The note with it: Plasmodium falciparum, 3D7.
Data set [2] concerns Plasmodium falciparum. Put plainly: NOVARTIS: Inhibition of Plasmodium falciparum W2 (drug-resistant) proliferation in erythrocyte-based infection assay. The format is functional, organism-based. The note with it: Plasmodium falciparum, W2; read-out: EC50.
A short description of data set [3]: NOVARTIS: Cytotoxicity against human hepatocellular carcinoma cell line (Huh7). Type of data set: toxicity, cell-based, Huh-7. As to conditions: Huh7 cells (hepatocellular carcinoma cell line).

pEC50: −log10 of the molar value.

By pEC50 is commonly meant the EC50 on a negative log10 scale, so that one unit is a factor of ten. The CC50 is the concentration at which the toxic effect on the cells reaches its halfway point.

Take `CN1CCN(c2ccc(Nc3c4ccccc4nc4ccccc34)cc2)CC1`: the negative-log EC50 (pEC50) was 7.25 in data set [1] and 7.02 in data set [2]. Besides, the CC50 in data set [3] was found to be 6.76 µM.
`COc1cc(Nc2cncc(-c3ccncc3)n2)cc(OC)c1OC`: the figures for the pEC50 in data set [1] and in data set [2] were 5.96 and 5.85, respectively. Also, the CC50 in data set [3] is > 100 µM.
Take `O=C(c1cccs1)N1CCN(c2ccc([N+](=O)[O-])c(NC3CC3)c2)CC1`: the pEC50 in data set [1] is 5.68; in data set [2] it was 5.86. Also, the CC50 in data set [3] was > 100 µM.
Consider `Cc1ccc(NC(=O)c2ccc(NCCCN3CC(C)CC(C)C3)c([N+](=O)[O-])c2)cc1F` (stereo not given), for which the figures for the pEC50 in data set [1] and in data set [2] were 6.66 and 6.13, respectively. The CC50 in data set [3] is > 53.6 µM.
For the molecule `CCOC(=O)c1[nH]c2ccc(OC)cc2c1N=NN(C)C`, the pEC50 in data set [1] was 6.35; in data set [2], 6.02. In data set [3], the midpoint of cytotoxicity, the CC50, lay at 68.6 µM.
On the same counts, the results for `O=C(c1ccc(Cl)cc1Cl)N1CCCC(C(F)(F)F)C1` (stereo not given) are 6.18, 5.85 and > 100 µM.
As for `COc1ccc(C(NC(=O)c2cccc(OC)c2)c2cc(Cl)c3cccnc3c2O)cc1` (stereo not given), the pEC50 in data set [1] was 6.01; in data set [2], 5.86. In data set [3], the half-maximal cytotoxic concentration (CC50) was > 100 µM.
Take `Cc1cccc(NC(c2cccc(Cl)c2)c2ccc3cccnc3c2O)n1` (stereo not given): the figures for the pEC50 in data set [1] and in data set [2] were 6.04 and 6.05, respectively. In addition, in data set [3], the CC50 is > 62.4 µM.
The like results for `COc1ccc(NC(=O)N2CCN(C(=O)c3nc(-c4ccccc4)nc(C)c3C(=O)OC(C)C)CC2C)cc1` (stereo not given) were, in that order, 6.20, 6.85 and > 10 µM.
As for `CC1CCCCN1CC(=O)N1CCN(C(=O)CN2CCCCC2C)CC1.CC=O` (stereo not given), the pEC50 in data set [1] was < 5.90; in data set [2] it was 7.22. The CC50 in data set [3] is > 4.25 µM.
The like results for `COc1cc(C(=O)OCCC2CCC[N+]3(C)CCCCC23)cc(OC)c1OC` (stereo not given) were, in that order, < 4.90, 5.87 and > 100 µM.
The like results for `CC(=O)N1CCOC1C(C)(C)CC=C(C)CCC=C(C)C` (stereo not given) were, in that order, 5.69, 5.87 and > 100 µM.
`Cc1noc(C)c1S(=O)(=O)N(Cc1ccccc1)CC(O)CN1CCC(NC(=O)Cc2cccs2)C1` (stereo not given): the negative logarithm of the EC50 (pEC50) is 6.76 in data set [1] and 6.85 in data set [2]. Moreover, the CC50 in data set [3] was > 10 µM.
On the same counts, the results for `CCOC(=O)C1=C(C)N=c2sc(=Cc3cc(Br)ccc3O)c(=O)n2C1c1ccccc1` (stereo not given) are 5.26, 5.85 and > 100 µM.
On the same counts, the results for `CCOC(=O)C1=C(C(=O)OCC)SC(=C2C(=S)C(C)(C)N(C(=O)c3cccc(F)c3)c3cc(C)ccc32)S1` are < 5.12, < 5.85 and > 100 µM.
The like results for `CCCCC(=O)NC(c1cccc([N+](=O)[O-])c1)c1ccc2cccnc2c1O` (stereo not given) were, in that order, 6.42, 6.57 and 18.8 µM.
With `CC(C)CN1C(=O)N(CCCc2cccnc2)C(=O)C12CCN(C1CCOCC1)CC2`, the pEC50 in data set [1] is < 4.90; in data set [2], 5.85. Moreover, the CC50 in data set [3] is > 100 µM.
The like results for `CCCCNC(=O)NC(Cc1c[nH]c2ccccc12)C(=O)NC1CCCCC1` (stereo not given) were, in that order, < 5.90, < 7.55 and > 2.02 µM.
For the molecule `CC[n+]1c(/C=C/c2ccc(F)cc2)ccc2ccccc21`, the pEC50 is 6.91 in data set [1] and 6.86 in data set [2]. The CC50 in data set [3] was > 10 µM.
The like results for `CCNC(=S)NC1CC2CCCC(C1)N2CCc1ccccc1` (stereo not given) were, in that order, 5.80, 5.86 and > 100 µM.
For `COc1ccc(C2CC(=O)C3=C(C2)NC(C)=C(C(=O)OC2CCCC2)C3c2cccc(C)c2)cc1OC` (stereo not given), the figures for the pEC50 in data set [1] and in data set [2] were 6.52 and 6.68, respectively. For the same molecule, the CC50 in data set [3] was 14.9 µM.
For `CCOC(=O)c1c(-c2ccccc2)oc2c1C(=O)c1ccccc1C2=O`, the negative logarithm of the EC50 (pEC50) was 5.95 in data set [1] and 5.87 in data set [2]. In data set [3], the CC50 is > 100 µM.
The like results for `COc1ccc(C=CC(=O)NC(=O)c2ccccc2O)cc1OC` were, in that order, 5.89, 5.86 and > 100 µM.
Turning to `O=C(Nc1ccc(Cl)cc1)N1CCN(c2ccc3nncn3n2)CC1`, the pEC50 in data set [1] was 5.69; in data set [2], 5.86. The 50% cytotoxic concentration (CC50) in data set [3] is > 100 µM.
Turning to `CC(C)(C)NC(=O)C(C1CC1)N1C(=O)c2cc(O)ccc2NC(=O)[C@@H]1CCCCN` (stereo not given in full), the pEC50 was < 5.90 in data set [1] and 6.86 in data set [2]. For the same molecule, the CC50 in data set [3] is > 10 µM.
The like results for `COc1ccc(-c2noc(CC(=O)Nc3ccccc3C#N)n2)cc1` were, in that order, 5.22, 5.86 and > 100 µM.
Consider `CC(C)OC(=O)CSc1nnc(CNc2nc(-c3ccccc3)cs2)n1C`, for which the negative logarithm of the EC50 (pEC50) in data set [1] and in data set [2] was 5.86 in each case. Also, the CC50 in data set [3] is > 100 µM.
On to `COC(=O)CC(NC(=O)c1ccc(C)cc1)c1ccc2c(c1)OCO2` (stereo not given), for which the pEC50 in data set [1] is < 5.77; in data set [2], 6.69. The molecule further had a CC50 in data set [3] of 15 µM.
On the same counts, the results for `COC(=O)[C@@H]1C[C@@H](NC(=O)c2ccc(C)cc2)CN1Cc1ccc(OC)c(C)c1OC` are 6.25, 6.86 and > 10 µM.
For the molecule `COc1cccc2c1OCC(CN1CCC(C(=O)Nc3ccc(-n4cccn4)cc3)CC1)=C2`, the pEC50 in data set [1] is 6.09; in data set [2], < 5.86. The cytotoxic concentration (CC50) in data set [3] is > 100 µM.
On the same counts, the results for `Cc1cccc(C)c1OCC(=O)Nc1ccccc1O` are 6.13, 5.87 and > 100 µM.
On the same counts, the results for `O=S(=O)(Nc1ccc(F)cc1)N1CCCCCC1` are < 4.90, 5.87 and > 100 µM.
The like results for `COc1cccc(NC(=O)c2ccc(NCCCC3CCCCCC3)c([N+](=O)[O-])c2)c1` were, in that order, 6.65, 6.41 and 28.8 µM.
With `CCCCN(CCCC)CCCNc1ncnc2c1[nH]c1ccc(C)cc12`, the pEC50 was 6.83 in data set [1] and 7.00 in data set [2]. Further, in data set [3], it took 7.41 µM to reach half-maximal cytotoxicity (CC50).
The like results for `Cc1ccc(-c2cc(C(F)(F)F)n3ncc(C(=O)Nc4cc(Cl)ccc4O)c3n2)cc1` were, in that order, 5.73, 5.85 and > 100 µM.
Turning to `O=C(Nc1ccc([N+](=O)[O-])cc1Cl)c1cc(Br)ccc1O`, the pEC50 in data set [1] is < 4.90; in data set [2], 6.10. In addition, half-maximal cytotoxicity in data set [3] (CC50) was put at 55.6 µM.
On the same counts, the results for `CCN(c1ccc(OC)cc1)S(=O)(=O)c1ccc(C)cc1` are < 4.90, 5.86 and > 100 µM.
The like results for `O=C(Nc1ccc(Oc2cccnc2)cc1)C1CCN(Cc2ccc3nonc3c2)CC1` were, in that order, 5.95, 5.85 and > 100 µM.
For `COc1cc2c(cc1OC)C(COc1ccc(F)cc1)N(C(=O)c1ccc(OC(C)C)cc1)CC2` (stereo not given), the figures for the pEC50 in data set [1] and in data set [2] were 6.81 and 5.85, respectively. The 50% cytotoxic concentration (CC50) in data set [3] is > 100 µM.
Turning to `COc1cccc(C(C(=O)NC2CCCCC2)N(C(=O)c2snc(C(N)=O)c2N)c2ccc(C)cc2)c1OC` (stereo not given), the values for the pEC50 in data set [1] and in data set [2] were 5.46 and 5.86, respectively. Also, the CC50 in data set [3] was > 100 µM.
`BrC(Br)(Br)c1ncc(-c2ccccc2)cn1`: the figures for the pEC50 in data set [1] and in data set [2] were 7.36 and 6.85, respectively. For the same molecule, the 50% cytotoxic concentration (CC50) in data set [3] is > 10 µM.
The like results for `Cc1nc(-c2cnccc2C(F)(F)F)sc1C(=O)NN` were, in that order, < 4.96, 5.86 and > 100 µM.
Consider `COc1ccccc1N1C(=N)S/C(=C/c2ccc(N(C)C)cc2)C1=O`, for which the pEC50 in data set [1] was 6.92; in data set [2] it was 6.87. Moreover, the 50% cytotoxic concentration (CC50) in data set [3] was > 10 µM.
In the case of `CCOc1ccc2[nH]c3c(NCCN(C)C)ncnc3c2c1`, the pEC50 in data set [1] was 6.11; in data set [2], 6.36. Also, the CC50 in data set [3] stood at 32.5 µM.
The like results for `COc1ccc(C(=O)C2CC2c2ccc(Cl)cc2)cc1` (stereo not given) were, in that order, 6.66, 5.85 and > 100 µM.
With `Cc1ccc(COc2ccc3c(C#N)c4ccccn4c3c2)cc1`, the values for the negative-log EC50 (pEC50) in data set [1] and in data set [2] were 5.68 and 5.86, respectively. Also, the CC50 in data set [3] was > 100 µM.
Take `Cc1ccc(C2CC(=O)N3CN(c4ccc(Br)cc4)CSC3=C2C#N)o1` (stereo not given): the pEC50 in data set [1] is < 4.90; in data set [2], 5.87. Further, the CC50 in data set [3] is > 100 µM.
For `O=C(COC(c1cccs1)c1cccnc1Cl)N1CCN(C(=O)Nc2ccccc2)CC1` (stereo not given), the figures for the pEC50 in data set [1] and in data set [2] were < 4.90 and 5.85, respectively. In addition, in data set [3], the CC50 was > 100 µM.
The like results for `CN(CCCNc1ccnc2cc(Cl)ccc12)C(=O)c1cccc(Br)c1` were, in that order, 7.22, 6.86 and 9.59 µM.
The like results for `Cc1cccnc1NC(c1ccc([N+](=O)[O-])cc1)c1ccc2cccnc2c1O` (stereo not given) were, in that order, 6.85, 6.67 and 15 µM.
The like results for `Oc1c2c(nc3cc(-c4ccc(-c5ccccc5)cc4)nn13)CCCC2` were, in that order, 5.94, 5.99 and > 73.8 µM.
As for `CC(=O)c1ccc(OCc2cc(C(=O)N3CCCCC3c3cccnc3)no2)cc1` (stereo not given), the pEC50 was 5.38 in data set [1] and 5.86 in data set [2]. Further, in data set [3], the half-maximal cytotoxic concentration (CC50) was > 100 µM.
Regarding `CC(=O)Nc1ccc(S(=O)(=O)N(C)CC(=O)NN=Cc2ccncc2)cc1`, the pEC50 is < 5.24 in data set [1] and 5.87 in data set [2]. Also, the 50% cytotoxic concentration (CC50) in data set [3] is > 100 µM.
The like results for `CCOC(=O)c1ccc(OCC2c3cc(OC)c(OC)cc3CCN2C(=O)c2ccc([N+](=O)[O-])cc2)cc1` (stereo not given) were, in that order, < 4.90, 5.87 and > 100 µM.
Take `O=C(CNCCc1ccccc1)NC(c1ccccc1)c1ccccc1`: the results for the negative logarithm of the EC50 (pEC50) in data set [1] and in data set [2] were 5.22 and 6.21, respectively. Besides, the CC50 in data set [3] amounted to 45.4 µM.
